This passage reports ring closure, isolated yield results from publication PMC10910531.

Data set [1] in a line: CRE method C: cyclic carbamate/urea formation with triphosgene + Et3N. The note with it: the molecule shown is the open-chain precursor, CH2Cl2, 100.0 mM, 22.0 °C.
Data set [2] is described as follows: CRE method B: lactone/thiolactone/lactam formation, EDC.HCl + HOBt + DIPEA. The note with it: DMF, 100.0 mM, 22.0 °C.
Data set [3] in a line: CRE method A: lactone/lactam formation, T3P + DIPEA, internal nucleophile (pyridine/amine) cascade. The note with it: the molecule shown is the open-chain precursor, CHCl3, 50.0 mM, 22.0 °C.
Data set [4] is described as follows: CRE method E: cyclic oxalate-type (1,2-dicarbonyl) formation with oxalyl chloride + Et3N. The note with it: the molecule shown is the open-chain precursor, CH2Cl2, 50.0 mM, 22.0 °C.
Data set [5] in a line: CRE method F: cyclic sulfite/sulfamidite formation with SOCl2 + DMAP. The note with it: the molecule shown is the open-chain precursor, CH2Cl2, 50.0 mM, 22.0 °C, 18.0 h.

As for `CN(C(=O)Cl)c1ccccc1-c1cccc(CC(O)c2ccccc2)n1` (stereo not shown) [S126 -> 85 (NMR yield)], the ring closure, isolated yield in data set [1] (10-membered ring, 18.0 h) was found to be 34%.

With `O=C1OCCCSCc2ccccc21` [12 -> 13], the ring closure, isolated yield in data set [2] (from O=C(O)c1ccccc1CSCCCO, 9-membered ring, 18.0 h) worked out at 86%.

As for `O=C1OCCCCCc2ccccc21` [14 -> 15 (control)], in data set [2] (from O=C(O)c1ccccc1CCCCCO, 9-membered ring, 18.0 h), the ring closure, isolated yield was 43%.

On to `O=C1OCCSCc2ccccc21` [47], for which the ring closure, isolated yield in data set [2] (from O=C(O)c1ccccc1CSCCO, 8-membered ring) was found to be 88%.

As for `CC(Cc1cccc(-c2ccccc2CC(=O)O)n1)Nc1ccccc1` (stereo not shown) [S77 -> 65 (quantitative)], the ring closure, isolated yield in data set [3] (10-membered ring, 0.5 h) turned out to be 100%.

For the compound `CC1CN(C)c2ccccc2-c2ccccc2C(=O)O1` (stereo not shown) [S69 -> 62], in data set [2] (from CC(O)CN(C)c1ccccc1-c1ccccc1C(=O)O, 9-membered ring, 24.0 h), the ring closure, isolated yield came out at 81%.

For the compound `O=C(Cl)N(CCCN(CCCO)c1ccccc1)c1ccccc1` [S138 -> 94], the ring closure, isolated yield in data set [1] (10-membered ring, 18.0 h) was found to be 78%.

In the case of `CN1CCCOC(=O)c2ccccc2-c2ccccc21` [S67 -> 61], in data set [2] (from CN(CCCO)c1ccccc1-c1ccccc1C(=O)O, 10-membered ring, 24.0 h), the ring closure, isolated yield was found to be 72%.

As to `O=C(Cl)C(=O)N(CCc1cccc(CCNc2ccccc2)n1)c1ccccc1` [S140 -> 96], in data set [4] (11-membered ring, 0.5 h), the ring closure, isolated yield turned out to be 51%.

As for `CN(C(=O)C(=O)Cl)c1ccccc1CCCCO` [26 -> 27 (control)], the ring closure, isolated yield in data set [4] (10-membered ring, 18.0 h) was 9%.

As for `CN(CCCN)CCCC(=O)O` [S104-derived amino acid -> 78 (2 steps)], in data set [3] (9-membered ring), the ring closure, isolated yield is 65%.

For `O=S(Cl)OCCCN(CCCO)c1ccccc1` (stereo not shown) [S130 -> 89], the ring closure, isolated yield in data set [5] (10-membered ring) was found to be 40%.

For the compound `CC(O)Cc1cccc(-c2ccccc2CC(=O)O)c1` (stereo not shown) [10 -> 11 (control)], the ring closure, isolated yield in data set [3] (10-membered ring) was determined as 0%.

Consider `O=C1OCCCSCc2c(Br)cccc21` [49c], for which the ring closure, isolated yield in data set [2] (from O=C(O)c1cccc(Br)c1CSCCCO, 9-membered ring) is 67%.

On to `CN(c1ccccc1-c1cccc(CCO)n1)S(=O)Cl` (stereo not shown) [S124 -> 86], for which the ring closure, isolated yield in data set [5] (10-membered ring) was 46%.

Regarding `O=C1c2ccccc2CN(Cc2ccccc2)CC2CCCCN12` (stereo not shown) [S108 -> 79], in data set [2] (from O=C(O)c1ccccc1CN(Cc1ccccc1)CC1CCCCN1, 8-membered ring, 18.0 h), the ring closure, isolated yield is 82%.

Consider `O=C(Cl)N(CCN(CCCO)c1ccccc1)c1ccccc1` [16 -> 17], for which, in data set [1] (9-membered ring, 0.5 h), the ring closure, isolated yield is 62%.

On to `CN1CCOC(=O)c2ccccc2-c2ccccc21` [S63 -> 60], for which the ring closure, isolated yield in data set [2] (from CN(CCO)c1ccccc1-c1ccccc1C(=O)O, 9-membered ring, 24.0 h) came out at 72%.

As for `CC1CCSCc2ccccc2C(=O)O1` (stereo not shown) [S43 -> 51], the ring closure, isolated yield in data set [2] (from CC(O)CCSCc1ccccc1C(=O)O, 9-membered ring, 16.0 h) amounted to 71%.

With `O=S(Cl)OCCCCCCCO` (stereo not shown) [30 -> 31 (control)], the ring closure, isolated yield in data set [5] (10-membered ring) is 8%.

Regarding `CN(CCCO)c1ccccc1N(C)C(=O)C(=O)Cl` [24 -> 25], the ring closure, isolated yield in data set [4] (10-membered ring, 18.0 h) stood at 73%.

In the case of `O=C1OCCCSCc2ccc(F)cc21` [S30 -> 48], in data set [2] (from O=C(O)c1cc(F)ccc1CSCCCO, 9-membered ring, 18.0 h), the ring closure, isolated yield is 80%.

For `CN1CCCC(=O)Oc2ccccc21` [S114 -> 81 (2 steps)], the ring closure, isolated yield in data set [2] (from CN(CCCC(=O)O)c1ccccc1O, 8-membered ring, 18.0 h) turned out to be 78%.

As to `O=C1SCCCSCc2ccccc21` [S86 -> 69], the ring closure, isolated yield in data set [2] (from O=C(O)c1ccccc1CSCCCS, 9-membered ring, 16.0 h) worked out at 65%.

For `C=CCNC(C)Cc1cccc(-c2ccccc2CC(=O)O)n1` (stereo not shown) [S74 -> 64 (2 steps)], the ring closure, isolated yield in data set [3] (10-membered ring, 0.5 h) came to 75%.

With `CNCCCN(C)CCCN(C)C(=O)C(=O)Cl` [34 -> 98], the ring closure, isolated yield in data set [4] (11-membered ring, 18.0 h) is 71%.

As to `CC(O)Cc1cncc(-c2ccccc2CC(=O)O)n1` (stereo not shown) [S52 -> 55], in data set [3] (10-membered ring, 0.5 h), the ring closure, isolated yield stood at 90%.

For `CC1CCN(C)c2ccccc2-c2ccccc2C(=O)O1` (stereo not shown) [S71 -> 63], the ring closure, isolated yield in data set [2] (from CC(O)CCN(C)c1ccccc1-c1ccccc1C(=O)O, 10-membered ring, 24.0 h) was 78%.

As for `CCNCCCN(CC)Cc1ccccc1C(=O)O` [S84-derived acid -> 68 (2 steps)], in data set [3] (9-membered ring), the ring closure, isolated yield turned out to be 54%.

In the case of `O=S(Cl)OCCCN(CCCO)Cc1ccccc1` (stereo not shown) [28 -> 29], the ring closure, isolated yield in data set [5] (10-membered ring) was 86%.

With `O=C1OCCCSCc2c1cccc2[N+](=O)[O-]` [50], the ring closure, isolated yield in data set [2] (from O=C(O)c1cccc([N+](=O)[O-])c1CSCCCO, 9-membered ring, 24.0 h) was found to be 47%.

On to `CN(C(=O)Cl)c1ccccc1-c1cccc(CCO)n1` [S124 -> 84], for which the ring closure, isolated yield in data set [1] (10-membered ring, 18.0 h) came to 59%.

For `CC(O)Cc1cccc(-c2ccccc2CC(=O)O)n1` (stereo not shown) [8 -> 9], in data set [3] (10-membered ring, 0.5 h), the ring closure, isolated yield was determined as 90%.

`O=C(Cl)N(CCc1cccc(CCNc2ccccc2)n1)c1ccccc1` [S140 -> 97]: in data set [1] (10-membered ring, 18.0 h), the ring closure, isolated yield amounted to 49%.

For `CC(O)Cc1cccc(-c2ccccc2COS(=O)Cl)n1` (stereo not shown) [S129 -> 88], in data set [5] (11-membered ring), the ring closure, isolated yield came out at 58%.

`O=C(Cl)N(CCCCCCO)c1ccccc1` [18 -> 19 (control)]: the ring closure, isolated yield in data set [1] (9-membered ring) stood at 0%.

As for `CC(Cc1cccc(-c2ccccc2CO)n1)N(C(=O)C(=O)Cl)c1ccccc1` (stereo not shown) [S127 -> 87], the ring closure, isolated yield in data set [4] (12-membered ring, 3.0 h) came out at 71%.
